Reference: patent publication US12257247B2 (Monte Rosa Therapeutics AG, priority 2023, dated 2025)
Read-outs that look alike come from different tables or passages of the source.

Molecular target: T1, VAV1 (Homo sapiens, UniProt P15498+Q96SW2)
T1 construct: A heterozygous VAV1 C-terminal HiBiT knock-in pool was generated at Monte Rosa Therapeutics from a clonal Jurkat cell; endogenous in cells; host or cells: Jurkat clone stably expressing LgBiT, homozygous GSPT1-G575N; heterozygous VAV1-HiBiT knock-in pool
Assay: VAV1 degradation activity, VAV1-HiBiT knock-in Jurkat luminescence assay (Example A, Table 1)
Assay type: cell-based
Conditions: VAV1-HiBiT knock-in Jurkat cells; for Dmax: Jurkat
How it was run: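 Jurkat cells carrying VAV1-HiBiT knock-in, plated in RPMI/10% FBS with Endurazine live-cell substrate and pre-incubated ~16 h at 37° C. Compound dosed from 10 μM stock; luminescence read 6 and 24 h later. Response normalised to plate negative/positive controls, EC50 from 3-parameter logistic fit (hillslope 1).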

[1] = luminescence read at 6 and 24 hours, read-out: VAV1 Dmax %
[2] = luminescence read at 6 and 24 hours, read-out: VAV1 Dmax %, class
[3] = luminescence read at 6 and 24 hours, read-out: VAV1 DC50
[4] = luminescence read at 6 and 24 hours, read-out: VAV1 DC50 (nM), class
[5] = luminescence read at 6 and 24 hours after compound addition, read-out: VAV1 Dmax %
[6] = luminescence read at 6 and 24 hours after compound addition, read-out: VAV1 Dmax %, class
[7] = luminescence read at 6 and 24 hours after compound addition, read-out: VAV1 DC50
[8] = luminescence read at 6 and 24 hours after compound addition, read-out: VAV1 DC50 (nM), class

SMILES | Dmax [1] | Dmax [2] | DC50 [3] | DC50 [4] | Dmax [5] | Dmax [6] | DC50 [7] | DC50 [8]
O=C1CCC(c2cccc(-c3ccc(N4Cc5cccnc5C4=O)cc3)c2Cl)C(=O)N1 (stereo not shown) [Compound 465, 3-(2-chloro-4′-(7-oxo-5,7-dihydro-6H-pyrrolo[3,4-b]pyridin-6-yl)-[1,1′-biphenyl]-3-yl)piperidine-2,6-dione] | 39.9% | < 60% | ≥ 10000 nM | > 1000 nM | – | – | – | –
O=C1CCC(c2cccc(-c3ccc(N4Cc5ncccc5C4=O)cc3)c2Cl)C(=O)N1 (stereo not shown) [Compound 466, 3-(2-chloro-4′-(5-oxo-5,7-dihydro-6H-pyrrolo[3,4-b]pyridin-6-yl)-[1,1′-biphenyl]-3-yl)piperidine-2,6-dione] | 35.2% | < 60% | ≥ 10000 nM | > 1000 nM | – | – | – | –
O=C1CCC(c2cccc(-c3cnc(-n4ccccc4=O)nc3)c2Cl)C(=O)N1 (stereo not shown) [Compound 474, 3-(2-chloro-3-(2-(2-oxopyridin-1(2H)-yl)pyrimidin-5-yl)phenyl)piperidine-2,6-dione] | 35.3% | < 60% | ≥ 10000 nM | > 1000 nM | – | – | – | –
O=C1CCC(c2cccc(-c3ccc(N4CCCCC4C(F)(F)F)cc3)c2Cl)C(=O)N1 (stereo not shown) [Compound 476] | 84% | 60 to 90% | 397 nM | 100 to 1000 nM | – | – | – | –
Cn1ccc(COc2ncc(-c3cccc(C4CCC(=O)NC4=O)c3Cl)cn2)n1 (stereo not shown) [Compound 479, 3-(2-chloro-3-(2-((1-methyl-1H-pyrazol-3-yl)methoxy)pyrimidin-5-yl)phenyl)piperidine-2,6-dione] | 31% | < 60% | ≥ 10000 nM | > 1000 nM | – | – | – | –
O=C1CCC(c2cccc(-c3ccc(N4C(=O)C5CC4C5)cc3)c2Cl)C(=O)N1 (stereo not shown) [Compound 481, 3-(2-chloro-4′-{3-oxo-2-azabicyclo[2.1.1]hexan-2-yl}-[1,1′-biphenyl]-3-yl)piperidine-2,6-dione] | 46% | < 60% | ≥ 10000 nM | > 1000 nM | – | – | – | –
O=C1CCC(c2cccc(-c3ccc4cc[nH]c4c3)c2Cl)C(=O)N1 (stereo not shown) [Compound 483, 3-(2-chloro-3-(1H-indol-6-yl)phenyl)piperidine-2,6-dione] | – | – | – | – | 88.1% | 60 to 90% | 59.9 nM | ≤ 100 nM
O=C1CCC(c2cccc(-c3ccc4cn[nH]c4c3)c2Cl)C(=O)N1 (stereo not shown) [Compound 484, 3-(2-chloro-3-(1H-indazol-6-yl)phenyl)piperidine-2,6-dione] | – | – | – | – | 78.4% | 60 to 90% | 220 nM | 100 to 1000 nM
O=C1CCC(c2cccc(-c3ccc4[nH]ncc4c3)c2Cl)C(=O)N1 (stereo not shown) [Compound 485, 3-[2-chloro-3-(1H-indazol-5-yl)phenyl]piperidine-2,6-dione] | – | – | – | – | 89.7% | 60 to 90% | 41 nM | ≤ 100 nM
O=C1CCC(c2cccc(-c3ccc4c(c3)CCCN4)c2Cl)C(=O)N1 (stereo not shown) [Compound 486, 3-(2-chloro-3-(1,2,3,4-tetrahydroquinolin-6-yl)phenyl)piperidine-2,6-dione] | – | – | – | – | 96.2% | > 90% | 6.51 nM | ≤ 100 nM
O=C1CCC(c2cccc(-c3ccc4c(c3)OCCN4)c2Cl)C(=O)N1 (stereo not shown) [Compound 487, 3-(2-chloro-3-(3,4-dihydro-2H-benzo[b][1,4]oxazin-7-yl)phenyl)piperidine-2,6-dione] | – | – | – | – | 82.8% | 60 to 90% | 23.7 nM | ≤ 100 nM

More lines, in order of falling DC50 [3], values ahead:

Dmax [1] | Dmax [2] | DC50 [3] | DC50 [4] | Dmax [5] | Dmax [6] | DC50 [7] | DC50 [8] | SMILES
70.5% | 60 to 90% | 291 nM | 100 to 1000 nM | – | – | – | – | O=C1CCC(c2cccc(-c3ccc(N4C(=O)CC5CC54)cc3)c2Cl)C(=O)N1 (stereo not shown) [Compound 478, 3-(2-chloro-4′-(3-oxo-2-azabicyclo[3.1.0]hexan-2-yl)-[1,1′-biphenyl]-3-yl)piperidine-2,6-dione]
89.9% | 60 to 90% | 277 nM | 100 to 1000 nM | – | – | – | – | O=C1CCC(c2cccc(-c3ccc(-c4cccc5ocnc45)cc3)c2Cl)C(=O)N1 (stereo not shown) [Compound 460, 3-(4′-(benzo[d]oxazol-4-yl)-2-chloro-[1,1′-biphenyl]-3-yl)piperidine-2,6-dione]
79.4% | 60 to 90% | 266 nM | 100 to 1000 nM | – | – | – | – | O=C1CCC(c2cccc(-c3ccc(N4CCCCC4C(F)F)cc3)c2Cl)C(=O)N1 (stereo not shown) [Compound 469, 3-(2-chloro-4′-(2-(difluoromethyl)piperidin-1-yl)-[1,1′-biphenyl]-3-yl)piperidine-2,6-dione]
73.2% | 60 to 90% | 98.9 nM | ≤ 100 nM | – | – | – | – | CN(C(=O)c1ccn(C)n1)c1ccc(-c2cccc(C3CCC(=O)NC3=O)c2Cl)cc1 (stereo not shown) [Compound 475, N-(2′-chloro-3′-(2,6-dioxopiperidin-3-yl)-[1,1′-biphenyl]-4-yl)-N, 1-dimethyl-1H-pyrazole-3-carboxamide]
88.7% | 60 to 90% | 65.6 nM | ≤ 100 nM | – | – | – | – | O=C1CCC(c2cccc(-c3ccc(-n4ccccc4=O)nc3)c2Cl)C(=O)N1 (stereo not shown) [Compound 477, 3-(2-chloro-3-(2-oxo-2H-[1,2′-bipyridin]-5′-yl)phenyl)piperidine-2,6-dione]
96.2% | > 90% | 24.8 nM | ≤ 100 nM | – | – | – | – | O=C1CCC(c2cccc(-c3ccc(N4C(=O)Cc5ccccc54)cc3)c2Cl)C(=O)N1 (stereo not shown) [Compound 468, 3-(2-chloro-4′-(2-oxoindolin-1-yl)-[1,1′-biphenyl]-3-yl)piperidine-2,6-dione]
92.8% | > 90% | 24.1 nM | ≤ 100 nM | – | – | – | – | O=C1CCC(c2cccc(-c3ccc(-n4cccnc4=O)cc3)c2Cl)C(=O)N1 (stereo not shown) [Compound 471, 3-(2-chloro-4′-(2-oxopyrimidin-1(2H)-yl)-[1,1′-biphenyl]-3-yl)piperidine-2,6-dione]
91.7% | > 90% | 18.7 nM | ≤ 100 nM | – | – | – | – | O=C1CCC(c2cccc(-c3ccc4[nH]ccc4c3)c2Cl)C(=O)N1 (stereo not shown) [Compound 482, 3-(2-chloro-3-(1H-indol-5-yl)phenyl)piperidine-2,6-dione]
95.5% | > 90% | 14.8 nM | ≤ 100 nM | – | – | – | – | [2H]c1c([2H])c(-n2ccccc2=O)c([2H])c([2H])c1-c1cccc(C2CCC(=O)NC2=O)c1Cl (stereo not shown) [Compound 462, 3-(2-chloro-3-(2,3,5,6-tetradeuterio-4-(2-oxo-1-pyridyl)phenyl)phenyl)piperidine-2,6-dione]
95% | > 90% | 11.5 nM | ≤ 100 nM | – | – | – | – | O=C1CCC(c2cccc(-c3ccc(N4COCCC4=O)cc3)c2Cl)C(=O)N1 (stereo not shown) [Compound 467, 3-(2-chloro-4′-(4-oxo-1,3-oxazinan-3-yl)-[1,1′-biphenyl]-3-yl)piperidine-2,6-dione]
96.2% | > 90% | 10.1 nM | ≤ 100 nM | – | – | – | – | O=C1CCC(c2cccc(-c3ccc(N4CCCCC4=O)c(F)c3)c2Cl)C(=O)N1 (stereo not shown) [Compound 461, 3-(2-chloro-3′-fluoro-4′-(2-oxopiperidin-1-yl)-[1,1′-biphenyl]-3-yl)piperidine-2,6-dione]
94.8% | > 90% | 9.46 nM | ≤ 100 nM | – | – | – | – | O=C1CCC(c2cccc(-c3ccc(N4CCC(F)(F)CC4=O)cc3)c2Cl)C(=O)N1 (stereo not shown) [Compound 464, 3-(2-chloro-4′-(4,4-difluoro-2-oxopiperidin-1-yl)-[1,1′-biphenyl]-3-yl)piperidine-2,6-dione]
96.2% | > 90% | 9.34 nM | ≤ 100 nM | – | – | – | – | Cc1nc(Cc2ccc(-c3cccc(C4CCC(=O)NC4=O)c3Cl)cc2)no1 (stereo not shown) [Compound 473, 3-(2-chloro-4′-((5-methyl-1,2,4-oxadiazol-3-yl)methyl)-[1,1′-biphenyl]-3-yl)piperidine-2,6-dione]
97.1% | > 90% | 9.19 nM | ≤ 100 nM | – | – | – | – | O=C1CCC(c2cccc(-c3ccc(-n4ccccc4=O)c(F)c3)c2Cl)C(=O)N1 (stereo not shown) [Compound 470, 3-(2-chloro-3′-fluoro-4′-(2-oxopyridin-1(2H)-yl)-[1,1′-biphenyl]-3-yl)piperidine-2,6-dione]
96.7% | > 90% | 8.25 nM | ≤ 100 nM | – | – | – | – | O=C1CCC(c2cccc(-c3ccc(Cc4ncco4)cc3)c2Cl)C(=O)N1 (stereo not shown) [Compound 472, 3-(2-chloro-4′-(oxazol-2-ylmethyl)-[1,1′-biphenyl]-3-yl)piperidine-2,6-dione]
96.7% | > 90% | 8.08 nM | ≤ 100 nM | – | – | – | – | Cn1ccc(Cc2nn(C)c3cc(-c4cccc(C5CCC(=O)NC5=O)c4Cl)ccc23)n1 (stereo not shown) [Compound 480, 3-(2-chloro-3-(1-methyl-3-((1-methyl-1H-pyrazol-3-yl)methyl)-1H-indazol-6-yl)phenyl)piperidine-2,6-dione]
95.7% | > 90% | 7.16 nM | ≤ 100 nM | – | – | – | – | O=C1CCC(c2cccc(-c3ccc(N4C(=O)CCCC4C(F)F)cc3)c2Cl)C(=O)N1 (stereo not shown) [Compound 463, 3-(2-chloro-4′-(2-(difluoromethyl)-6-oxopiperidin-1-yl)-[1,1′-biphenyl]-3-yl)piperidine-2,6-dione]
